Laboratory results reported in publication PMC8459971, “Evaluation of the hepatotoxicity of the novel GPR40 (FFAR1) agonist CPL207280 in the rat and monkey” (PLoS ONE, 2021).
Read-outs that look alike come from different tables or passages of the source.

System: HepaRG spheroids
Assay: HepaRG 3D spheroids, cell and mitochondrial health markers, 14 days
Details: for High Cell Loss (Cellular ATP) / High Cell Loss (DNA structure) / High Cell Loss (Glutathione content) / High Cell Loss (Mitochondrial mass) / High Cell Loss (Mitochondrial membrane potential) / High Cell Loss (Oxidative stress) / High Cell Loss (Spheroid count) / High Cell Loss (Spheroid size): timepoint 336; for AC50: Homo sapiens, HepaRG
[1] = HepaRG spheroid, TIMEPOINT 336, at the concentration (uM) given
[2] = HepaRG spheroid, TIMEPOINT 336, plotted value at the concentration given

Method: Hepatic spheroids were formed by seeding HepaRG™ cells into round-bottom ultra-low adhesion 96-well spheroid plates (Corning®) in 3D liver media with 0.5% DMSO, 100 U/mL penicillin, and 100 mg/L streptomycin. Cells were incubated at 37°C and 5% CO2 until spheroid formation and then compound-treated. The test compound was diluted in the vehicle, and serial dilutions were made in a 0.5% vehicle in HepaRG™ induction media. […] L-buthionine sulfoximine was used as positive control for GSH content, whereas rotenone was simultaneously used as a positive control for mitochondrial dysfunction and ATP content. At the end of the incubation period, the cells were loaded with the relevant dye for each cell health marker: DNA structure–Hoescht, GSH content–mBCL, ROS formation–DHE, mitochondrial dysfunction–MitoTracker, and cellular ATP content–CellTiter-Glo®, Promega. The plate was then scanned using an automated confocal fluorescent cellular imager, ArrayScan® XTI (Thermo Scientific Cellomics) at 37°C and 5% CO2. Further, the cellular ATP content was measured using CellTiter-Glo® (Promega, USA).

## CCCCS(=N)(=O)CC[C@H](N)C(=O)O (stereo partly drawn) [L-buthionine-sulfoximine]
CONC 0.4 uM, HepaRG spheroid
  High Cell Loss (Cellular ATP): N
  High Cell Loss (DNA structure): N
  High Cell Loss (Glutathione content): N
  High Cell Loss (Mitochondrial mass): N
  High Cell Loss (Mitochondrial membrane potential): N
  High Cell Loss (Oxidative stress): N
  High Cell Loss (Spheroid count): N
  High Cell Loss (Spheroid size): N
CONC 0.4 uM, TIMEPOINT 336
  Cellular ATP Mean Plotted Value: 1.06
  DNA structure Mean Plotted Value: 1
  Glutathione content Mean Plotted Value: 0.883
  Mitochondrial mass Mean Plotted Value: 1.03
  Mitochondrial membrane potential Mean Plotted Value: 0.945
  Oxidative stress Mean Plotted Value: 1.02
  Spheroid count Mean Plotted Value: 1
  Spheroid size Mean Plotted Value: 0.995
CONC 1 uM, HepaRG spheroid
  High Cell Loss (Cellular ATP): N
  High Cell Loss (DNA structure): N
  High Cell Loss (Glutathione content): N
  High Cell Loss (Mitochondrial mass): N
  High Cell Loss (Mitochondrial membrane potential): N
  High Cell Loss (Oxidative stress): N
  High Cell Loss (Spheroid count): N
  High Cell Loss (Spheroid size): N
CONC 1 uM, TIMEPOINT 336
  Cellular ATP Mean Plotted Value: 1.05
  DNA structure Mean Plotted Value: 1.1
  Glutathione content Mean Plotted Value: 0.886
  Mitochondrial mass Mean Plotted Value: 1.14
  Mitochondrial membrane potential Mean Plotted Value: 1
  Oxidative stress Mean Plotted Value: 0.984
  Spheroid count Mean Plotted Value: 1
  Spheroid size Mean Plotted Value: 1.06
CONC 4 uM, HepaRG spheroid
  High Cell Loss (Cellular ATP): N
  High Cell Loss (DNA structure): N
  High Cell Loss (Glutathione content): N
  High Cell Loss (Mitochondrial mass): N
  High Cell Loss (Mitochondrial membrane potential): N
  High Cell Loss (Oxidative stress): N
  High Cell Loss (Spheroid count): N
  High Cell Loss (Spheroid size): N
CONC 4 uM, TIMEPOINT 336
  Cellular ATP Mean Plotted Value: 0.856
  DNA structure Mean Plotted Value: 0.816
  Glutathione content Mean Plotted Value: 0.715
  Mitochondrial mass Mean Plotted Value: 1.03
  Mitochondrial membrane potential Mean Plotted Value: 0.861
  Oxidative stress Mean Plotted Value: 1
  Spheroid count Mean Plotted Value: 1
  Spheroid size Mean Plotted Value: 0.997
CONC 10 uM, HepaRG spheroid
  High Cell Loss (Cellular ATP): N
  High Cell Loss (DNA structure): N
  High Cell Loss (Glutathione content): N
  High Cell Loss (Mitochondrial mass): N
  High Cell Loss (Mitochondrial membrane potential): N
  High Cell Loss (Oxidative stress): N
  High Cell Loss (Spheroid count): N
  High Cell Loss (Spheroid size): N
CONC 10 uM, TIMEPOINT 336
  Cellular ATP Mean Plotted Value: 0.697
  DNA structure Mean Plotted Value: 1.13
  Glutathione content Mean Plotted Value: 0.689
  Mitochondrial mass Mean Plotted Value: 0.979
  Mitochondrial membrane potential Mean Plotted Value: 0.943
  Oxidative stress Mean Plotted Value: 1.04
  Spheroid count Mean Plotted Value: 1
  Spheroid size Mean Plotted Value: 0.951
CONC 40 uM, HepaRG spheroid
  High Cell Loss (Cellular ATP): N
  High Cell Loss (DNA structure): N
  High Cell Loss (Glutathione content): N
  High Cell Loss (Mitochondrial mass): N
  High Cell Loss (Mitochondrial membrane potential): N
  High Cell Loss (Oxidative stress): N
  High Cell Loss (Spheroid count): N
  High Cell Loss (Spheroid size): N
CONC 40 uM, TIMEPOINT 336
  Cellular ATP Mean Plotted Value: 0.216
  DNA structure Mean Plotted Value: 1.18
  Glutathione content Mean Plotted Value: 0.15
  Mitochondrial mass Mean Plotted Value: 1.05
  Mitochondrial membrane potential Mean Plotted Value: 0.972
  Oxidative stress Mean Plotted Value: 1.22
  Spheroid count Mean Plotted Value: 1
  Spheroid size Mean Plotted Value: 0.955
CONC 100 uM, HepaRG spheroid
  High Cell Loss (Cellular ATP): N
  High Cell Loss (DNA structure): N
  High Cell Loss (Glutathione content): N
  High Cell Loss (Mitochondrial mass): N
  High Cell Loss (Mitochondrial membrane potential): N
  High Cell Loss (Oxidative stress): N
  High Cell Loss (Spheroid count): N
  High Cell Loss (Spheroid size): N
CONC 100 uM, TIMEPOINT 336
  Cellular ATP Mean Plotted Value: 0.019
  DNA structure Mean Plotted Value: 1.13
  Glutathione content Mean Plotted Value: 0.119
  Mitochondrial mass Mean Plotted Value: 1.03
  Mitochondrial membrane potential Mean Plotted Value: 0.807
  Oxidative stress Mean Plotted Value: 1.13
  Spheroid count Mean Plotted Value: 1
  Spheroid size Mean Plotted Value: 0.975
CONC 400 uM, HepaRG spheroid
  High Cell Loss (Cellular ATP): N
  High Cell Loss (DNA structure): N
  High Cell Loss (Glutathione content): N
  High Cell Loss (Mitochondrial mass): N
  High Cell Loss (Mitochondrial membrane potential): N
  High Cell Loss (Oxidative stress): N
  High Cell Loss (Spheroid count): N
  High Cell Loss (Spheroid size): N
CONC 400 uM, TIMEPOINT 336
  Cellular ATP Mean Plotted Value: 0.00038
  DNA structure Mean Plotted Value: 0.279
  Glutathione content Mean Plotted Value: 0.0382
  Mitochondrial mass Mean Plotted Value: 0.963
  Mitochondrial membrane potential Mean Plotted Value: 0.452
  Oxidative stress Mean Plotted Value: 0.937
  Spheroid count Mean Plotted Value: 1
  Spheroid size Mean Plotted Value: 0.965
CONC 1000 uM, HepaRG spheroid
  High Cell Loss (Cellular ATP): N
  High Cell Loss (DNA structure): N
  High Cell Loss (Glutathione content): N
  High Cell Loss (Mitochondrial mass): N
  High Cell Loss (Mitochondrial membrane potential): N
  High Cell Loss (Oxidative stress): N
  High Cell Loss (Spheroid count): N
  High Cell Loss (Spheroid size): N
CONC 1000 uM, TIMEPOINT 336
  Cellular ATP Mean Plotted Value: 0.000301
  DNA structure Mean Plotted Value: 0.123
  Glutathione content Mean Plotted Value: 0.0358
  Mitochondrial mass Mean Plotted Value: 0.999
  Mitochondrial membrane potential Mean Plotted Value: 0.412
  Oxidative stress Mean Plotted Value: 0.683
  Spheroid count Mean Plotted Value: 1
  Spheroid size Mean Plotted Value: 0.983
HepaRG spheroid, TIMEPOINT 336
  Cellular ATP MEC: 6.84 µM
  DNA structure MEC: 222 µM
  Glutathione content MEC: 2.95 µM
  Mitochondrial membrane potential MEC: 177 µM
  Oxidative stress MEC: 658 (NS) uM
[1]
  Cellular ATP MR (% @ concentration): 100%
  DNA structure MR (% @ concentration): 89%
  Glutathione content MR (% @ concentration): 96%
  Mitochondrial membrane potential MR (% @ concentration): 58%
  Oxidative stress MR (% @ concentration): 35%
[2]
  Cellular ATP MR: 0.000301
  DNA structure MR: 0.123
  Glutathione content MR: 0.0358
  Mitochondrial membrane potential MR: 0.412
  Oxidative stress MR: 0.683
read-out: Cellular ATP AC50
  AC50: 15.5 µM
read-out: DNA structure AC50
  AC50: 294 µM
read-out: Glutathione content AC50
  AC50: 16.2 µM
read-out: Mitochondrial mass AC50
  AC50: > 1000 µM
read-out: Mitochondrial membrane potential AC50
  AC50: 511 µM
read-out: Oxidative stress AC50
  AC50: > 1000 µM
read-out: Spheroid count AC50
  AC50: > 1000 µM
read-out: Spheroid size AC50
  AC50: > 1000 µM
